These results are taken from PubChem BioAssay (NCI).

Values joined by “and” are separate entries in the source; they are usually repeats but may differ in a detail not shown here. Equal entries are not always repeated.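 Grown in 96-well plates, cells were treated for 48 hours with each compound at five concentrations. Insufficient inhibition: endpoint recorded as highest concentration tested. At the GI50, growth is halved. TGI marks complete inhibition of growth.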 A value given as a limit tells only on which side of the number the result lay.

Some test systems named below: SR leukemia; LXFL 529 NSCLC; SN12C renal; HCC-2998 colon; HOP-18 NSCLC; SF-268 CNS; HOP-62 NSCLC; A498 renal; MALME-3M melanoma; MCF7 breast.
Common to all, as to experiment: NCI-60 cell line screen, 48 h

`CC(=O)NC1C(OCc2ccccc2)OC(COC(=O)CCCCCCCCCCNC(=O)CCNc2ccc([N+](=O)[O-])c3[nH]c4ccc(O)cc4c(=O)c23)C(O)C1OC(C)C(=O)N[C@H](C(=O)N[C@H](CCC(=O)O)C(N)=O)C(C)C` (stereo not given in full): the TGI was 45.4 µM with SR leukemia; greater than 100 µM in the assay on LXFL 529 NSCLC; greater than 100 µM in the assay on SN12C renal; greater than 100 µM in the assay with HCC-2998 colon; greater than 100 µM in the assay with HOP-18 NSCLC; greater than 100 µM in the assay with SF-268 CNS. In addition, the TGI in the assay on HOP-62 NSCLC, in the assay with A498 renal and in the assay on MALME-3M melanoma was greater than 100 µM in each case.

For `NC1=C(O)/C(=N/NS(=O)(=O)c2ccccc2)C(c2cccc(Cl)c2)O1` (stereo not given), the TGI is 9.15 µM in the assay on SR leukemia; 35.8 µM in the assay on LXFL 529 NSCLC; greater than 67.2 µM in the assay with SN12C renal; greater than 100 µM with HCC-2998 colon; 61.7 µM in the assay with MCF7 breast; greater than 100 µM with HOP-18 NSCLC. Further, the TGI was greater than 100 µM with SF-268 CNS, greater than 100 µM in the assay on HOP-62 NSCLC, greater than 100 µM with A498 renal and 54.8 µM in the assay with MALME-3M melanoma.

As to `Cn1c(=O)c2nc3sc4ccccc4c(=N)n3c2n(C)c1=O`, the TGI with SR leukemia, in the assay with LXFL 529 NSCLC, in the assay on SN12C renal, in the assay on HCC-2998 colon, in the assay with HOP-18 NSCLC and in the assay on SF-268 CNS was greater than 100 µM throughout. In addition, the TGI with HOP-62 NSCLC, with A498 renal and in the assay with MALME-3M melanoma was greater than 100 µM in each case.

Take `COc1ccc2c(c1)[n+](=O)c(C(=O)C/C(=N\NC(=O)C[N+](C)(C)C)C(=O)Nc1cc(Cl)ccc1Cl)c(C)n2O`: the TGI in the assay with SR leukemia, in the assay with LXFL 529 NSCLC, in the assay with SN12C renal, in the assay with HCC-2998 colon, in the assay on HOP-18 NSCLC and in the assay on SF-268 CNS was greater than 100 µM in each case. The TGI in the assay with HOP-62 NSCLC, in the assay on A498 renal and in the assay with MALME-3M melanoma was greater than 100 µM in each case.

Take `CCn1cc(C(=O)O)c(=O)c2cc(F)c(N3CCNCC3)nc21`: the TGI in the assay with SR leukemia, in the assay on LXFL 529 NSCLC, in the assay with SN12C renal, in the assay on HCC-2998 colon, in the assay on HOP-18 NSCLC and with SF-268 CNS was greater than 100 µM throughout. In addition, the TGI in the assay on HOP-62 NSCLC, in the assay on A498 renal and with MALME-3M melanoma was greater than 100 µM each time.

`N[C@@H](Cc1ccc(N(CCCl)CCCl)cc1)C(=O)O`: the TGI in the assay with SR leukemia is 39.1 µM and 71.4 µM; in the assay with LXFL 529 NSCLC, 110 µM; in the assay on SN12C renal, > 100 µM and > 68.3 µM and 161 µM; in the assay on HCC-2998 colon, > 100 µM and 62.2 µM and 95.4 µM; with MCF7 breast, > 100 µM and 50.4 µM and 97.2 µM; in the assay on HOP-18 NSCLC, 64.5 µM and 158 µM. For the same compound, the TGI in the assay with SF-268 CNS is > 100 µM and 52.2 µM and 148 µM; with A498 renal it was > 100 µM and > 78.2 µM and 177 µM; in the assay with MALME-3M melanoma, 30.5 µM and 35.3 µM and 66 µM. Besides, the GI50 in the assay with SN12C renal was 3.73 µM and 9.39 µM; in the assay with HCC-2998 colon it was 75.5 µM and 22.1 µM; with MCF7 breast it was 5.53 µM and 6.95 µM; in the assay on HOP-18 NSCLC, 23.7 µM and 55.1 µM; with SF-268 CNS, 7.08 µM and 5.64 µM; in the assay with HOP-62 NSCLC, 28.7 µM and 4.34 µM. Also, the GI50 was 33.2 µM and 49.3 µM with A498 renal; 13.7 µM and 18.3 µM with MALME-3M melanoma.

As to `OC1/C(=C/c2ccccc2)CNC/C1=C\c1ccccc1` (stereo not given), the TGI in the assay on SR leukemia, with LXFL 529 NSCLC, in the assay with SN12C renal, with HCC-2998 colon, in the assay on HOP-18 NSCLC and with SF-268 CNS was greater than 100 µM each time. The TGI in the assay on HOP-62 NSCLC, in the assay on A498 renal and with MALME-3M melanoma was greater than 100 µM in each case.

With `CC(=O)c1ccc(-c2ccc(C(C)=O)s2)s1`, the TGI with SR leukemia, in the assay on LXFL 529 NSCLC, in the assay on SN12C renal, in the assay with HCC-2998 colon, in the assay with HOP-18 NSCLC and with HOP-62 NSCLC was greater than 100 µM throughout. Besides, the TGI in the assay on A498 renal is 4.16 µM; in the assay on MALME-3M melanoma it was greater than 100 µM.
